# Experimental data: patent US11319322B2, “Substituted aryl ether compound, preparation method thereof, pharmaceutical composition and use thereof” (Xiamen University, priority 2017, dated 2022)
# Experiments:
# Type in all cases: cell-based
# CCDC6-RET-BaF3 = biological target: T1, CCDC6-RET-BaF3 (Homo sapiens, UniProt P07949); experiment: Growth inhibition of CCDC6-RET-BaF3 cells stably transfected with kinase (MTS); settings: 48 h, read-out: CCDC6-RET (IC50/nM)
# T1 construct: fused on or other part: Q16204 (Coiled-coil domain-containing protein 6)
# T1 sequence (P07949 whole entry, change not shown, the tested form may be a part): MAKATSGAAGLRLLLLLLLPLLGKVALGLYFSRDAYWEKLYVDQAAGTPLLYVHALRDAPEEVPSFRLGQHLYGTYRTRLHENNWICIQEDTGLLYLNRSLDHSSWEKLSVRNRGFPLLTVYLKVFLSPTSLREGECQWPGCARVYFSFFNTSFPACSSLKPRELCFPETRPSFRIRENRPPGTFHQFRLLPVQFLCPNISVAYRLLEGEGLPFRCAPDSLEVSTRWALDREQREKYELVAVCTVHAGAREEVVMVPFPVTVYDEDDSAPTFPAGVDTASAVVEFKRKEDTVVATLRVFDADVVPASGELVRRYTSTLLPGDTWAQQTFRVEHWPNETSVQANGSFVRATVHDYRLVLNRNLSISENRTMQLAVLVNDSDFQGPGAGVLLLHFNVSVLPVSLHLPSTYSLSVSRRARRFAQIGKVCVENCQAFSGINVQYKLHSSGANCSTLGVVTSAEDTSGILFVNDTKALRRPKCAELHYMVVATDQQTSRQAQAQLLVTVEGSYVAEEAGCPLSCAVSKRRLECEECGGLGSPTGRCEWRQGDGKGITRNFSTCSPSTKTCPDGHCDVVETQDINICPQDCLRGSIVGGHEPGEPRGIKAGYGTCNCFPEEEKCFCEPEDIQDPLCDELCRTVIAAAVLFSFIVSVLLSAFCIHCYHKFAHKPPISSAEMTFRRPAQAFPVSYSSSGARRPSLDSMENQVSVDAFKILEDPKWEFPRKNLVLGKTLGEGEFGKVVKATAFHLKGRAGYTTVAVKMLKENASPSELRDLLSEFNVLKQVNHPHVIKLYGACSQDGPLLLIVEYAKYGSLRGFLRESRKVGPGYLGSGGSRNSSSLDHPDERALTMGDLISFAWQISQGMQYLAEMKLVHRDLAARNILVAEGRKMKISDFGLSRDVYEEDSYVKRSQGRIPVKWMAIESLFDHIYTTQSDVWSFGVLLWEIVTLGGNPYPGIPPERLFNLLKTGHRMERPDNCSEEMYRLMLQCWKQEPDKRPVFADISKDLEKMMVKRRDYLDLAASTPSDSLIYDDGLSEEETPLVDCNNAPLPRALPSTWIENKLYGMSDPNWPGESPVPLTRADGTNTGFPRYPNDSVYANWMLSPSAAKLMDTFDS
# Procedure, shortened: (§1)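 IC50 derived from growth inhibition by MTS absorbance at 490 nm after 48 h compound exposure (top 10 μM, 1:3 steps, 8 points, 0.1% DMSO) of 2×10^4 RET-fusion (CCDC6-RET, KIF5B-RET) or wild-type BaF3 cells per well, in triplicate.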
# KIF5B-RET-BaF3 = biological target: T2, KIF5B-RET-BaF3 (Homo sapiens, UniProt P07949); experiment: Growth inhibition of KIF5B-RET-BaF3 cells stably transfected with kinase (MTS); settings: 48 h, read-out: KIF5B-RET (IC50/nM)
# T2 construct: fused on or other part: P33176 (Kinesin-1 heavy chain)
# T2 sequence (P07949 whole entry, change not shown, the tested form may be a part): as above
# Procedure, shortened: as §1
# wild-type BaF3 = experiment: Growth inhibition of wild-type BaF3 cells, broad-spectrum toxicity (MTS); settings: Mus musculus, 48 h, read-out: WT Ba/F3 (IC50/nM)
# Procedure: Growth inhibitory activity of compounds on cell lines stably transfected with kinase
# The activity of compounds against kinase RET is evaluated by their effect of inhibiting growth of cell lines stably transfected with kinase CCDC6-RET-BaF3, KIF5B-RET-BaF3, and wild-type BaF3 (Proc. Natl. Acad. Sci. USA., 2006, 103, 3153-8.). The growth of the cell lines stably transfected with kinase CCDC6-RET-BaF3, KIF5B-RET-BaF3 depends on their kinase activity. If a compound can inhibit the activity of the kinase RET per se or the activity of the RET signaling pathway, the compound can inhibit the growth of BaF3 cells stably transfected with kinase. […] Therefore, a larger ratio between IC50 of a compound to wild-type BaF3 and IC50 of the compound to the cell lines stably transfected with kinase CCDC6-RET-BaF3, KIF5B-RET-BaF3 indicates better targeting.
# The specific test method is given as follows:
# 1) Medium: DMEM (Dulbecco's modified eagle medium) or RPMI 1640 (containing 10% fetal bovine serum, 100 μg/mL ampicillin, 100 μg/mL streptomycin).
# 2) Reagents: MTS reaction solution (containing 2 mg/mL of MTS [3-(4,5-dimethylthiazol-2-yl)-5-(3-carboxymethoxyphenyl)-2-(4-sulfophenyl)-2H-tetrazolium, inner Salt]; 100 μg/mL PES (phenazine […])).
# 3) Compound test: cells stably transfected with kinase (CCDC6-RET-BaF3, KIF5B-RET-BaF3) or wild-type BaF3 cells (2×10^4 cells/well) were incubated into a 96-well culture plate, the volume of cell culture fluid was 90 μL, and then 10 μL of the compound at each gradient concentration was added (the highest concentration was 10 μM, which was diluted stepwise by ⅓, and 8 concentration points were set in total; the system contained 0.1% DMSO (dimethyl sulfoxide)). The cell plate with uniformly mixed compound was cultured in a cell culture incubator (37° C.; 5% CO2) for 48 h, then 20 μL of MTS reaction solution was added, uniformly mixed and incubated in the cell culture incubator (37° C.; 5% CO2) for 1-4 hr, OD values at 490 nm were measured by a microplate reader (VARIOSKAN FLASH, Thermo). Three parallels were set in each group of experiments, with 0.1% (a final concentration) DMSO as a negative control, and a medium without cells or compounds as a blank control. The cell growth inhibition rate was calculated by the following formula: Cell growth inhibition rate %=1−(ODexperimental group−ODblank group)/(ODnegative group−ODblank group)×100%
# 4) IC50 calculation: The semi-inhibitory concentration of the compound acting on cell growth was calculated using GradPad Prism 5 software according to the measured cell growth inhibition rate.
SMILES,GI50 (CCDC6-RET-BaF3) [nM],GI50 (KIF5B-RET-BaF3) [nM],IC50 (wild-type BaF3) [nM]
Cc1ccc(Oc2nc(-c3ccsc3)nc3c2ncn3C)cc1NC(=O)c1ccc(CN2CCN(C)CC2)c(C(F)(F)F)c1 [I-j-7],1030,1440,2410
CN1CCN(Cc2ccc(NC(=O)c3cccc(Oc4nc(-c5ccncc5)nc5[nH]cnc45)c3)cc2C(F)(F)F)CC1 [I-l-1],476,1950,> 10000
CN1CCN(Cc2ccc(NC(=O)c3cccc(Oc4nc(-c5ccncc5)nc5c4ncn5C)c3)cc2C(F)(F)F)CC1 [I-l-3],25.2,5.88,> 10000
Cc1ccc(C(=O)Nc2ccc(CN3CCN(C)CC3)c(C(F)(F)F)c2)cc1Oc1nc(-c2ccncc2)nc2[nH]cnc12 [I-m-1],504,810,> 10000
Cc1ccc(Oc2nc(-c3ccncc3)nc3[nH]cnc23)cc1C(=O)Nc1ccc(CN2CCN(C)CC2)c(C(F)(F)F)c1 [I-n-1],298,900,> 10000
Cc1ccc(Oc2nc(-c3cccnc3)nc3c2ncn3C)cc1C(=O)Nc1ccc(CN2CCN(C)CC2)c(C(F)(F)F)c1 [I-n-2],3210,3640,1610
Cc1ccc(C(=O)Nc2cccc(C(F)(F)F)c2)cc1Oc1nc(-c2ccncc2)nc2c1cnn2C [II-e-2],1430,1770,> 10000
CN1CCN(Cc2ccc(C(=O)Nc3cccc(Oc4nc(-c5cccnc5)nc5[nH]ncc45)c3)cc2C(F)(F)F)CC1 [II-h-3],343,820,4090
CN1CCN(Cc2ccc(C(=O)Nc3cccc(Oc4nc(-c5ccncc5)nc5[nH]ncc45)c3)cc2C(F)(F)F)CC1 [II-h-4],78.6,300,3930
Cc1ccc(Oc2nc(-c3cccnc3)nc3[nH]ncc23)cc1NC(=O)c1ccc(CN2CCN(C)CC2)c(C(F)(F)F)c1 [II-j-5],2370,3890,7400
Cc1ccc(Oc2nc(-c3ccncc3)nc3[nH]ncc23)cc1NC(=O)c1ccc(CN2CCN(C)CC2)c(C(F)(F)F)c1 [II-j-6],7.96,44.2,4230
CN1CCN(Cc2ccc(C(=O)Nc3cc(Oc4nc(-c5cccnc5)nc5[nH]ncc45)ccc3Cl)cc2C(F)(F)F)CC1 [II-k-3],567,1350,1340
CN1CCN(Cc2ccc(C(=O)Nc3cc(Oc4nc(-c5ccncc5)nc5[nH]ncc45)ccc3Cl)cc2C(F)(F)F)CC1 [II-k-4],37.7,104,> 10000
Cc1ccc(C(=O)Nc2ccc(CN3CCN(C)CC3)c(C(F)(F)F)c2)cc1Oc1nc(-c2cccnc2)nc2[nH]ncc12 [II-m-20],10.6,74.3,> 10000
Cc1ccc(C(=O)Nc2ccc(CN3CCN(C)CC3)c(C(F)(F)F)c2)cc1Oc1nc(-c2ccncc2)nc2[nH]ncc12 [II-m-21],73.4,240,4780
Cc1ccc(Oc2nc(-c3ccccc3)nc3cc[nH]c23)cc1NC(=O)c1ccc(CN2CCN(C)CC2)c(C(F)(F)F)c1 [III-j-3],2480,2350,3780
Cc1ccc(Oc2nc(-c3ccsc3)nc3cc[nH]c23)cc1NC(=O)c1ccc(CN2CCN(C)CC2)c(C(F)(F)F)c1 [III-j-4],1360,1720,3410
Cc1ccc(Oc2nc(-c3ccccc3)nc3ccn(C)c23)cc1NC(=O)c1ccc(CN2CCN(C)CC2)c(C(F)(F)F)c1 [III-j-7],1270,1370,2560
Cc1ccc(Oc2nc(-c3ccsc3)nc3ccn(C)c23)cc1NC(=O)c1ccc(CN2CCN(C)CC2)c(C(F)(F)F)c1 [III-j-8],1140,1320,1880
